In US11358931B2, “Selective androgen receptor modulators (SARMs) and uses thereof” (priority 2007, dated 2022):

Assays:
hPR-B = target: T1, hPR-B (Homo sapiens, UniProt P06401); assay: Co-transfection assay, other nuclear receptors: hPR-B; assay type: cell-based
T1 construct: expressed in transfected cells
T1 sequence (P06401 1-933): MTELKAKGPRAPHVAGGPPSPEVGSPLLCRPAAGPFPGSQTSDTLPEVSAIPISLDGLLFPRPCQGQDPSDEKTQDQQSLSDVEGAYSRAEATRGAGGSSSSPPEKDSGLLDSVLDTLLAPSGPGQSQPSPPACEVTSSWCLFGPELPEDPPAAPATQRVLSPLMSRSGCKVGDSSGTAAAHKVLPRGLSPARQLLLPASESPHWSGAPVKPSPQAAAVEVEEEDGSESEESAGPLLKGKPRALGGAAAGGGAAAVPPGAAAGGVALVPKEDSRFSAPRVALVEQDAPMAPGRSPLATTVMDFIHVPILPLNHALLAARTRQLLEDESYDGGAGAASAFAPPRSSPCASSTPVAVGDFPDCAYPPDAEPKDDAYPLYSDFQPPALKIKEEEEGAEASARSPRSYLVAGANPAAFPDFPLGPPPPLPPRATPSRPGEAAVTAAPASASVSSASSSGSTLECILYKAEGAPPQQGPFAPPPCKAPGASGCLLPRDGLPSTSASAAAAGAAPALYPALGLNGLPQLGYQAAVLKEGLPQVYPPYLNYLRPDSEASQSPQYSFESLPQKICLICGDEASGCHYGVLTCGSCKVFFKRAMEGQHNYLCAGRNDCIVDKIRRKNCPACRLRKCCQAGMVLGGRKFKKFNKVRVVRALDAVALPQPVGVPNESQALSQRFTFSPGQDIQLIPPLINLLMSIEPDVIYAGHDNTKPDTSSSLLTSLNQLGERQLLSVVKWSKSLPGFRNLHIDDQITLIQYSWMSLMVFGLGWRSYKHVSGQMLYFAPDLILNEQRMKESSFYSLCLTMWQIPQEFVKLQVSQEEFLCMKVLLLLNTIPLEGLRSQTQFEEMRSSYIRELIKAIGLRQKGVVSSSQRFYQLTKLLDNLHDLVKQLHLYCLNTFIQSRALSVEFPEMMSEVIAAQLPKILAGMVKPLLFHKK
From the text: (§1) An exemplary co-transfection assay is the luciferase reporter assay (Evans, Science 240: 889-895 (1988), Berger et al., J Steroid Biochem Mol Biol 41: 733-738 (1992)) can be used to establish the ability of a compound of formulae I, II or III to activate (agonist activity) or repress (antagonist activity) the ability of the human androgen receptor (hAR) to induce gene expression. A human cell line containing endogenously expressed hAR (e.g., MDA-MB-453 cells, derived from a human mammary carcinoma, American Tissue Type Culture Collection [ATCC] HTB 131) can be transfected with an androgen responsive luciferase reporter plasmid to measure the level of cross-reactivity of the compound on other nuclear receptors (such as the glucocorticoid receptor (GR), estrogen receptor (ER), mineralocorticoid receptor (MR), progesterone receptor (PR), retinoid receptor (RAR), retinoid X receptor (RXR), peroxisome proliferator activating receptors alpha (PPARα), gamma (PPARγ) and delta (PPARδ), liver X receptor (LXR), farnesyl X receptor (FXR) and the pregnane X receptor (PXR)). In the assay, luciferase reporter plasmids containing the cDNA for firefly luciferase (LUC) under the control of a conditional promoter containing hormone response elements recognized by the appropriate nuclear receptor are co-transfected into cells with the nuclear receptor expression plasmid. […]

hGR = target: T2, hGR (Homo sapiens, UniProt P04150); assay: Co-transfection assay, other nuclear receptors: hGR; assay type: cell-based
T2 construct: expressed in transfected cells
T2 sequence (P04150 1-777): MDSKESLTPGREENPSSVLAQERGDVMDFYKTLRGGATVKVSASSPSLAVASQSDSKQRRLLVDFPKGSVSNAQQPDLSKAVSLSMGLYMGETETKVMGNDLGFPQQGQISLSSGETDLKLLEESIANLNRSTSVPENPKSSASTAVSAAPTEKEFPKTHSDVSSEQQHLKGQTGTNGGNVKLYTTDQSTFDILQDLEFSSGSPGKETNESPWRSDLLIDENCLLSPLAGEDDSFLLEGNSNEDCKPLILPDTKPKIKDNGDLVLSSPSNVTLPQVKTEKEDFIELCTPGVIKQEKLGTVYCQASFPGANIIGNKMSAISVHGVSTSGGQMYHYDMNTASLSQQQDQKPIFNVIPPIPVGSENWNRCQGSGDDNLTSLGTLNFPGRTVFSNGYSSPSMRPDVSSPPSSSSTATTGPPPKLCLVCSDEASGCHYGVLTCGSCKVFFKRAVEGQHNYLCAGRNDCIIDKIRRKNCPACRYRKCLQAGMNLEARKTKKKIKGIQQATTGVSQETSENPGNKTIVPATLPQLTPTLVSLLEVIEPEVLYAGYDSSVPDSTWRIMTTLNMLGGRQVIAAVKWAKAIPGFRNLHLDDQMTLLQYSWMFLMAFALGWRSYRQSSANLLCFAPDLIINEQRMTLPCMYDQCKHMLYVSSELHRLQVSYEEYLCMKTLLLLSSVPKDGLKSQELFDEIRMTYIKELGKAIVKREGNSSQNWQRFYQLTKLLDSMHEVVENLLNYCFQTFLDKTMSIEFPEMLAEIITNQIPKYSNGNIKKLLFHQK
From the text: as §1

hAR = hAR (Homo sapiens, UniProt P10275); assay: cell-based
hAR, sequence (P10275 whole entry): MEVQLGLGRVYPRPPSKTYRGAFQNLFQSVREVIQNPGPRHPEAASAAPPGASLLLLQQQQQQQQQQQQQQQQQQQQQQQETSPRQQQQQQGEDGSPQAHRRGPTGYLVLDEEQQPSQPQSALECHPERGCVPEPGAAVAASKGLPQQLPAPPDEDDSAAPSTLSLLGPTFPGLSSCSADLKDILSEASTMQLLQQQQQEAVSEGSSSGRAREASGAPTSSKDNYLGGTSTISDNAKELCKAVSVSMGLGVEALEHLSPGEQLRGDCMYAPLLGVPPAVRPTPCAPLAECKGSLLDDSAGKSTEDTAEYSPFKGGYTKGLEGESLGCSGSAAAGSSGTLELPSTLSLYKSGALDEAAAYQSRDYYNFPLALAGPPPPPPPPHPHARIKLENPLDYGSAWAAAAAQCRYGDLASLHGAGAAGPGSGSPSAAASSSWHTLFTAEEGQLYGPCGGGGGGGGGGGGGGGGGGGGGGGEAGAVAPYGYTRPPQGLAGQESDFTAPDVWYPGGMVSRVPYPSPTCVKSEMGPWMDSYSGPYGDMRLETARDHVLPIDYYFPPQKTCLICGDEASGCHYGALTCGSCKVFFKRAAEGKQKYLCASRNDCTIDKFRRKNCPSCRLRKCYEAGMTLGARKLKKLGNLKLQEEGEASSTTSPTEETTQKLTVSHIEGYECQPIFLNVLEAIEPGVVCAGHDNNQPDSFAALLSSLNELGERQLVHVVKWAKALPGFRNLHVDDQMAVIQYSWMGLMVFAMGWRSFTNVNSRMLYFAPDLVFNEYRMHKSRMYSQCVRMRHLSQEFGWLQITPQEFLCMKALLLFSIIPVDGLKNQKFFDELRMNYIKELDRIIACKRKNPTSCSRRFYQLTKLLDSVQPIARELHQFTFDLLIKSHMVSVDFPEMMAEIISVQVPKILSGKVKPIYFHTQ

For N#Cc1ccc(N2CCC[C@@H]2[C@@H](O)C(F)(F)F)cc1C(F)(F)F [Compound 102, R,R-4-(2-(1-Hydroxyl-2,2,2-trifluoroethyl)-pyrrolidinyl)-2-trifluoromethyl-benzonitrile], the IC50 (hPR-B) was 280 nM, the “antagonism of progesterone-induced activation of hPR-B (efficacy)” value (hPR-B; progesterone-induced activation) was 74% and the IC50 (hGR) was 1600 nM. The “antagonism of dexamethasone-induced activation of hGR (efficacy)” value (hGR; dexamethasone-induced activation) was 60%, the EC50 (hAR) was 3.1 nM and the Emax (hAR; MDA-MB-453, read-out: efficacy relative to dihydrotestosterone (DHT)) was 59%.
